Experimental findings from ChEMBL document CHEMBL5528026, “Structural modification of C2-substituents on 1,4-bis(arylsulfonamido)benzene or naphthalene-N,N'-diacetic acid derivatives as potent inhibitors of the Keap1-Nrf2 protein-protein interaction” (Eur J Med Chem, 2024) are described below.

The target in assay [1] is T1, Keap1/Nrf2 (Homo sapiens, UniProt Q14145). Nature of the assay: Inhibition of Keap1-Nrf2 protein-protein interaction (unknown origin) by fluorescence polarization assay. Background: Polarisation of emitted light reports the rotation of a fluorescent probe.
T1 sequence (Q16236 whole entry): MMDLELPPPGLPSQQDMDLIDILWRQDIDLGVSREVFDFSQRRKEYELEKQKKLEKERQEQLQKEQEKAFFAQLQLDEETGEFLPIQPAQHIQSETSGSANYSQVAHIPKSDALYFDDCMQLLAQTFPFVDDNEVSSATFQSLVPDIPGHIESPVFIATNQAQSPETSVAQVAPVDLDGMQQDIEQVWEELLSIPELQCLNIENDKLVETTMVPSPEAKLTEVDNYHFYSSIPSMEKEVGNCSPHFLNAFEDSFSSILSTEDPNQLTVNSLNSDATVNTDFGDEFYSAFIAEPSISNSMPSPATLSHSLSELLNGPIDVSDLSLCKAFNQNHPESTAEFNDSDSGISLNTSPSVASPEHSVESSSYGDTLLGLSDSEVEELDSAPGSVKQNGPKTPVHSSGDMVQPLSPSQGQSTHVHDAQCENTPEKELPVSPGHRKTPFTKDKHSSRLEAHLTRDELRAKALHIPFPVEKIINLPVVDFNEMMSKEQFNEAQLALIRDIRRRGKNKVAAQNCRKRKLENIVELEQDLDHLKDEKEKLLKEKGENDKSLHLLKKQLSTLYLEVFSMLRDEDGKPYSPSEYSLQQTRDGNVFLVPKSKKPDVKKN
T1 sequence (Q14145 whole entry): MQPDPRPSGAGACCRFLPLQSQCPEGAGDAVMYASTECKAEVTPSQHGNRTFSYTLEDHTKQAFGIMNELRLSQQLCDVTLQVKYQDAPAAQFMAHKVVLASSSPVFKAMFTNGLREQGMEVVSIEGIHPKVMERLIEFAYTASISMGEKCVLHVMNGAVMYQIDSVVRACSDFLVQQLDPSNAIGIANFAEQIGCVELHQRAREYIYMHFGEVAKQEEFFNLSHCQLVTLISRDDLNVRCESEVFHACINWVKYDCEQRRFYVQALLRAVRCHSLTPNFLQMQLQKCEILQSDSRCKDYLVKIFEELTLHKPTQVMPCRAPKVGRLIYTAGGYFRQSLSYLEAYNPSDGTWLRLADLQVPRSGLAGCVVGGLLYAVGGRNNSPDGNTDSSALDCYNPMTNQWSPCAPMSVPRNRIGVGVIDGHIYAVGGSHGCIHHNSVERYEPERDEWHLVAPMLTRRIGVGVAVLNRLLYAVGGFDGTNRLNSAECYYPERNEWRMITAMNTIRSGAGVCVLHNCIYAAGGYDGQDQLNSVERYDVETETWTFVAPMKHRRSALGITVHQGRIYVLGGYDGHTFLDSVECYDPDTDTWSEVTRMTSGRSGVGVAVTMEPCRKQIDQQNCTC
In assay [2] the target is T1, Keap1/Nrf2. Nature of the assay: (§1) Inhibition of Keap1-Nrf2 protein-protein interaction (unknown origin) assessed as inhibition constant by TR-FRET assay.
For assay [3], the target named is T1, Keap1/Nrf2. Nature of the assay: Inhibition of Keap1-Nrf2 protein-protein interaction (unknown origin) assessed as inhibition constant by fluorescence polarization assay.
In assay [4] the target is T2, Keap1/Nrf2 (Homo sapiens, UniProt Q16236+Q14145). Nature of the assay: Inhibition of Keap1-Nrf2 protein-protein interaction in human NCM460D cells assessed as fold induction at 1 to 100 uM in NQO1 mRNA level incubated for 24 hrs by RT-qPCR analysis. The assay is classed as cell-based. The following applies: dose 1-100 µM. (Real-time PCR tracks product formation cycle by cycle.)
Target sequence in this assay (Q14145 whole entry, looked up): as the sequence (Q14145 whole entry) above
Target sequence in this assay (Q16236 whole entry, looked up): as the sequence (Q16236 whole entry) above

For assay [5], the target named is T2, Keap1/Nrf2. The description is as §1.
Target sequence in this assay (Q16236 whole entry): as above
Target sequence in this assay (Q14145 whole entry): as the sequence (Q14145 whole entry) above
Assay [6] addresses T1, Keap1/Nrf2. Nature of the assay: Inhibition of Keap1-Nrf2 protein-protein interaction (unknown origin) by TR-FRET assay.

By IC50 is commonly meant the concentration that inhibits the measured activity by half. Broadly, the Ki is a dissociation constant, usually derived from enzyme kinetics or from competition with a known ligand. Turning to `COc1ccc(S(=O)(=O)N(CC(=O)O)c2ccc(N(CC(=O)O)S(=O)(=O)c3ccc(OC)cc3)c(C(=O)OCc3ccccc3)c2)cc1`, the IC50 against Keap1/Nrf2 [1] came out at 1610 nM. For the same molecule, at Keap1/Nrf2 [2], the Ki stood at 316 nM.

Turning to `COc1ccc(S(=O)(=O)N(CC(=O)O)c2ccc(N(CC(=O)O)S(=O)(=O)c3ccc(OC)cc3)c(OCC(=O)N3CCN(C)CC3)c2)cc1`, the half-maximal inhibitory concentration (IC50) on Keap1/Nrf2 [1] was 2260 nM. Besides, the Ki on Keap1/Nrf2 [2] is 452 nM.

For `Cc1ccc(S(=O)(=O)N(CC(=O)O)c2ccc(N(CC(=O)O)S(=O)(=O)c3ccc(C)cc3)c(NCC(=O)O)c2)cc1`, the IC50 against Keap1/Nrf2 [1] is 1780 nM. Also, at Keap1/Nrf2 [3], the Ki came out at 351 nM.

In the case of `COc1ccc(S(=O)(=O)N(CC(=O)O)c2ccc(N(CC(=O)O)S(=O)(=O)c3ccc(OC)cc3)c(OS(=O)(=O)Cc3ccccc3)c2)cc1`, the Ki at Keap1/Nrf2 [2] came out at 82 nM.

With `COc1ccc(S(=O)(=O)N(CC(=O)O)c2ccc(N(CC(=O)O)S(=O)(=O)c3ccc(OC)cc3)c(OCC(=O)N3CCC(c4ccccc4)CC3)c2)cc1`, the concentration for half-maximal inhibition (IC50) against Keap1/Nrf2 [1] turned out to be 760 nM. Moreover, the Ki on Keap1/Nrf2 [2] came to 141 nM.

Molecule `Cc1ccc(S(=O)(=O)N(CC(=O)O)c2ccc(N(CC(=O)O)S(=O)(=O)c3ccc(C)cc3)c(OS(=O)(=O)c3c(C)cc(C)cc3C)c2)cc1` had an IC50 against Keap1/Nrf2 [1] of 407 nM. Besides, at Keap1/Nrf2 [3], the Ki was determined as 67.6 nM.

In turn, `Cc1ccc(S(=O)(=O)N(CC(=O)O)c2ccc(N(CC(=O)O)S(=O)(=O)c3ccc(C)cc3)c(OCCN3C(=O)c4ccccc4C3=O)c2)cc1` registered an IC50 against Keap1/Nrf2 [1] of 228 nM. Moreover, the Ki at Keap1/Nrf2 [3] worked out at 30.6 nM.

For the molecule `COc1ccc(S(=O)(=O)N(CC(=O)O)c2ccc(N(CC(=O)O)S(=O)(=O)c3ccc(OC)cc3)c(OC(=O)c3ccccc3)c2)cc1`, the IC50 against Keap1/Nrf2 [1] stood at 1780 nM. In addition, on Keap1/Nrf2 [2], the Ki is 351 nM.

As for `COc1ccc(S(=O)(=O)N(CC(=O)O)c2ccc(N(CC(=O)O)S(=O)(=O)c3ccc(OC)cc3)c(OCC(=O)c3ccccc3)c2)cc1`, the IC50 against Keap1/Nrf2 [1] is 593 nM. The Ki on Keap1/Nrf2 [2] worked out at 106 nM.

Regarding `Cc1ccc(S(=O)(=O)N(CC(=O)O)c2ccc(N(CC(=O)O)S(=O)(=O)c3ccc(C)cc3)c(OCc3nnn[nH]3)c2)cc1`, the IC50 on Keap1/Nrf2 [1] was found to be 408 nM. The Ki at Keap1/Nrf2 [3] came to 68 nM.

Take `COc1ccc(S(=O)(=O)N(CC(=O)O)c2ccc(N(CC(=O)O)S(=O)(=O)c3ccc(OC)cc3)c(OS(=O)(=O)c3ccc(-c4ccccc4)cc3)c2)cc1`: the Ki at Keap1/Nrf2 [2] is 78.3 nM.

For the molecule `Cc1ccc(S(=O)(=O)N(CC(=O)O)c2ccc(N(CC(=O)O)S(=O)(=O)c3ccc(C)cc3)c(OCc3ccc(F)cc3)c2)cc1`, the Ki at Keap1/Nrf2 [3] came to 76.3 nM.

On Keap1/Nrf2 [1], `COc1ccc(S(=O)(=O)N(CC(=O)O)c2ccc(N(CC(=O)O)S(=O)(=O)c3ccc(OC)cc3)c(OS(=O)(=O)c3ccccc3)c2)cc1` showed an IC50 of 439 nM. Further, at Keap1/Nrf2 [2], the Ki came out at 74.2 nM.

On to `Cc1ccc(S(=O)(=O)N(CC(=O)O)c2cc(OCC(=O)O)c(N(CC(=O)O)S(=O)(=O)c3ccc(C)cc3)c3ccccc23)cc1`, for which, at Keap1/Nrf2 [4], the FC was 15.

In the case of `COc1ccc(S(=O)(=O)N(CC(=O)O)c2ccc(N(CC(=O)O)S(=O)(=O)c3ccc(OC)cc3)c(OS(=O)(=O)c3c(C)cc(C)cc3C)c2)cc1`, the Ki at Keap1/Nrf2 [2] is 50.7 nM.

`COc1ccc(S(=O)(=O)N(CC(=O)O)c2ccc(N(CC(=O)O)S(=O)(=O)c3ccc(OC)cc3)c(OCC(=O)Nc3ccccc3)c2)cc1` showed an IC50 against Keap1/Nrf2 [1] of 7680 nM. The Ki at Keap1/Nrf2 [2] was 1570 nM.

In the case of `Cc1ccc(S(=O)(=O)N(CC(=O)O)c2ccc(N(CC(=O)O)S(=O)(=O)c3ccc(C)cc3)c(CCC(=O)O)c2)cc1`, half-maximal inhibition against Keap1/Nrf2 [1] (IC50) required 565 nM. At Keap1/Nrf2 [3], the Ki came out at 100 nM.

In the case of `COc1ccc(S(=O)(=O)N(CC(=O)O)c2ccc(N(CC(=O)O)S(=O)(=O)c3ccc(OC)cc3)c(OCCN3CCOCC3)c2)cc1`, at Keap1/Nrf2 [1], inhibition was half-maximal at 2500 nM (IC50). The Ki on Keap1/Nrf2 [2] worked out at 500 nM.

At Keap1/Nrf2 [1], `COc1ccc(S(=O)(=O)N(CC(=O)O)c2ccc(N(CC(=O)O)S(=O)(=O)c3ccc(OC)cc3)c(C(=O)Oc3ccccc3)c2)cc1` showed an IC50 of 3850 nM. Moreover, the Ki on Keap1/Nrf2 [2] was 780 nM.

With `Cc1ccc(S(=O)(=O)N(CC(=O)O)c2ccc(N(CC(=O)O)S(=O)(=O)c3ccc(C)cc3)c(O[C@H](C)C(=O)O)c2)cc1`, on Keap1/Nrf2 [5], the Ki turned out to be 41.4 nM.

As for `Cc1ccc(S(=O)(=O)N(CC(=O)O)c2ccc(N(CC(=O)O)S(=O)(=O)c3ccc(C)cc3)c(O[C@@H](C)C(=O)O)c2)cc1`, the results for the 50% inhibitory concentration (IC50) against Keap1/Nrf2 [1] and on Keap1/Nrf2 [6] were 136 nM and 72.2 nM, respectively. Besides, the figures for the Ki on Keap1/Nrf2 [2] and at Keap1/Nrf2 [3] were 32.2 nM and 11.6 nM, respectively.

Take `COc1ccc(S(=O)(=O)N(CC(=O)O)c2ccc(N(CC(=O)O)S(=O)(=O)c3ccc(OC)cc3)c(OCC(=O)N3CCOCC3)c2)cc1`: at Keap1/Nrf2 [1], the 50% inhibitory concentration (IC50) was determined as 399 nM. For the same molecule, the inhibitory constant (Ki) at Keap1/Nrf2 [2] came out at 66.1 nM.

As to `Cc1ccc(S(=O)(=O)N(CC(=O)O)c2ccc(N(CC(=O)O)S(=O)(=O)c3ccc(C)cc3)c(OCC(=O)N3CCOCC3)c2)cc1`, on Keap1/Nrf2 [1], 641 nM corresponded to half-maximal inhibition (IC50). For the same molecule, the inhibition constant Ki on Keap1/Nrf2 [3] was determined as 116 nM.

On to `Cc1ccc(S(=O)(=O)N(CC(=O)O)c2cc(CCC(=O)O)c(N(CC(=O)O)S(=O)(=O)c3ccc(C)cc3)c3ccccc23)cc1`, for which the IC50 at Keap1/Nrf2 [1] amounted to 69.3 nM; against Keap1/Nrf2 [6], 22.3 nM. Besides, the Ki on Keap1/Nrf2 [2] is 9.1 nM; on Keap1/Nrf2 [3], approximately 1 nM. Besides, at Keap1/Nrf2 [4], the FC came to 8.
